This data set is described as follows: activity coefficient (dimensionless); of the first substance listed, at infinite dilution; xn = mol fraction of the nth substance listed. To be noted: 101.33 kPa, Liquid, Chromatography, x1 = 0.

± gives the expanded uncertainty stated by the source.

For the compound `CCCCCCCC` [octane] + CCCC[P+](CCCC)(CCCC)CCCC.O=S(=O)([N-]S(=O)(=O)C(F)(F)F)C(F)(F)F, the activity coefficient is, setting by setting: (358.15 K) 6.69 ± 0.46; (368.15 K) 6.62 ± 0.45; (378.15 K) 6.56 ± 0.45; (388.15 K) 6.5 ± 0.44; (398.15 K) 6.44 ± 0.44; (408.15 K) 6.39 ± 0.44.

Regarding `CCC(C)(C)C` [2,2-dimethylbutane] + CCCC[P+](CCCC)(CCCC)CCCC.O=S(=O)([N-]S(=O)(=O)C(F)(F)F)C(F)(F)F, the activity coefficient by setting is: (358.15 K) 3.93 ± 0.27; (368.15 K) 3.98 ± 0.27; (378.15 K) 4.01 ± 0.27; (388.15 K) 4.05 ± 0.28; (398.15 K) 4.08 ± 0.28; (408.15 K) 4.12 ± 0.28.

Take `CC(C)CC(C)(C)C` [2,2,4-trimethylpentane] + CCCC[P+](CCCC)(CCCC)CCCC.O=S(=O)([N-]S(=O)(=O)C(F)(F)F)C(F)(F)F: the activity coefficient amounted to 5.43 ± 0.37 (358.15 K); 5.42 ± 0.37 (368.15 K); 5.41 ± 0.37 (378.15 K); 5.4 ± 0.37 (388.15 K); 5.39 ± 0.37 (398.15 K); 5.39 ± 0.37 (408.15 K).

For the compound `C=CCCC` [1-pentene] + CCCC[P+](CCCC)(CCCC)CCCC.O=S(=O)([N-]S(=O)(=O)C(F)(F)F)C(F)(F)F, the activity coefficient was 2.61 ± 0.18 (358.15 K); 2.66 ± 0.18 (368.15 K); 2.7 ± 0.18 (378.15 K); 2.74 ± 0.19 (388.15 K); 2.78 ± 0.19 (398.15 K); 2.82 ± 0.19 (408.15 K).

Take `O` [water] + CCCC[P+](CCCC)(CCCC)CCCC.O=S(=O)([N-]S(=O)(=O)C(F)(F)F)C(F)(F)F: the activity coefficient reads like this: (358.15 K) 4.2 ± 0.29; (368.15 K) 3.85 ± 0.26; (378.15 K) 3.53 ± 0.24; (388.15 K) 3.26 ± 0.22; (398.15 K) 3.02 ± 0.21; (408.15 K) 2.81 ± 0.19.

As to `c1ccccc1` [benzene] + CCCC[P+](CCCC)(CCCC)CCCC.O=S(=O)([N-]S(=O)(=O)C(F)(F)F)C(F)(F)F, the activity coefficient runs as follows: (358.15 K) 0.836 ± 0.054; (368.15 K) 0.869 ± 0.056; (378.15 K) 0.901 ± 0.057; (388.15 K) 0.933 ± 0.059; (398.15 K) 0.963 ± 0.061; (408.15 K) 0.994 ± 0.062.

Regarding `CCOCC` [diethyl ether] + CCCC[P+](CCCC)(CCCC)CCCC.O=S(=O)([N-]S(=O)(=O)C(F)(F)F)C(F)(F)F, the activity coefficient turned out to be 1.65 ± 0.11 (358.15 K); 1.7 ± 0.11 (368.15 K); 1.76 ± 0.12 (378.15 K); 1.8 ± 0.12 (388.15 K); 1.86 ± 0.13 (398.15 K); 1.91 ± 0.13 (408.15 K).

Turning to `CO` [methanol] + CCCC[P+](CCCC)(CCCC)CCCC.O=S(=O)([N-]S(=O)(=O)C(F)(F)F)C(F)(F)F, the activity coefficient by setting is: (358.15 K) 1.28 ± 0.08; (368.15 K) 1.23 ± 0.08; (378.15 K) 1.18 ± 0.08; (388.15 K) 1.14 ± 0.07; (398.15 K) 1.1 ± 0.07; (408.15 K) 1.06 ± 0.07.

As to `CCCCCCCCC` [nonane] + CCCC[P+](CCCC)(CCCC)CCCC.O=S(=O)([N-]S(=O)(=O)C(F)(F)F)C(F)(F)F, the activity coefficient by setting is: (358.15 K) 8.31 ± 0.57; (368.15 K) 8.15 ± 0.56; (378.15 K) 8.01 ± 0.55; (388.15 K) 7.87 ± 0.54; (398.15 K) 7.74 ± 0.53; (408.15 K) 7.62 ± 0.52.

Regarding `CC#N` [acetonitrile] + CCCC[P+](CCCC)(CCCC)CCCC.O=S(=O)([N-]S(=O)(=O)C(F)(F)F)C(F)(F)F, the activity coefficient is 0.602 ± 0.042 (358.15 K); 0.613 ± 0.043 (368.15 K); 0.625 ± 0.043 (378.15 K); 0.635 ± 0.044 (388.15 K); 0.645 ± 0.044 (398.15 K); 0.655 ± 0.045 (408.15 K).

Regarding `C1CCCCCCC1` [cyclooctane] + CCCC[P+](CCCC)(CCCC)CCCC.O=S(=O)([N-]S(=O)(=O)C(F)(F)F)C(F)(F)F, the activity coefficient (358.15 K) was 4.08 ± 0.28; the activity coefficient (368.15 K) was determined as 4.04 ± 0.28; the activity coefficient (378.15 K) turned out to be 4 ± 0.27; the activity coefficient (388.15 K) stood at 3.97 ± 0.27; the activity coefficient (398.15 K) was found to be 3.94 ± 0.27; the activity coefficient (408.15 K) turned out to be 3.91 ± 0.27.

In the case of `C=CCCCCCC` [oct-1-ene] + CCCC[P+](CCCC)(CCCC)CCCC.O=S(=O)([N-]S(=O)(=O)C(F)(F)F)C(F)(F)F, the activity coefficient runs as follows: (358.15 K) 4.9 ± 0.33; (368.15 K) 4.92 ± 0.34; (378.15 K) 4.94 ± 0.34; (388.15 K) 4.96 ± 0.34; (398.15 K) 4.98 ± 0.34; (408.15 K) 5.01 ± 0.34.

As for `CCCOCCC` [dipropyl ether] + CCCC[P+](CCCC)(CCCC)CCCC.O=S(=O)([N-]S(=O)(=O)C(F)(F)F)C(F)(F)F, the activity coefficient (358.15 K) stood at 2.73 ± 0.19; the activity coefficient (368.15 K) is 2.78 ± 0.19; the activity coefficient (378.15 K) was determined as 2.83 ± 0.19; the activity coefficient (388.15 K) turned out to be 2.88 ± 0.2; the activity coefficient (398.15 K) stood at 2.93 ± 0.2; the activity coefficient (408.15 K) was 2.98 ± 0.2.

Take `C=CCCCC` [hex-1-ene] + CCCC[P+](CCCC)(CCCC)CCCC.O=S(=O)([N-]S(=O)(=O)C(F)(F)F)C(F)(F)F: the activity coefficient reads like this: (358.15 K) 3.15 ± 0.21; (368.15 K) 3.2 ± 0.22; (378.15 K) 3.24 ± 0.22; (388.15 K) 3.28 ± 0.22; (398.15 K) 3.32 ± 0.23; (408.15 K) 3.35 ± 0.23.

As to `CCC[N+](=O)[O-]` [1-nitropropane] + CCCC[P+](CCCC)(CCCC)CCCC.O=S(=O)([N-]S(=O)(=O)C(F)(F)F)C(F)(F)F, the activity coefficient (358.15 K) was determined as 0.693 ± 0.047; the activity coefficient (368.15 K) came out at 0.708 ± 0.047; the activity coefficient (378.15 K) amounted to 0.724 ± 0.048; the activity coefficient (388.15 K) was determined as 0.739 ± 0.049; the activity coefficient (398.15 K) turned out to be 0.754 ± 0.05; the activity coefficient (408.15 K) came out at 0.768 ± 0.05.

Consider `Cc1cccc(C)c1` [1,3-dimethylbenzene] + CCCC[P+](CCCC)(CCCC)CCCC.O=S(=O)([N-]S(=O)(=O)C(F)(F)F)C(F)(F)F, for which the activity coefficient (358.15 K) was 1.53 ± 0.1; the activity coefficient (368.15 K) was found to be 1.58 ± 0.1; the activity coefficient (378.15 K) amounted to 1.63 ± 0.11; the activity coefficient (388.15 K) was found to be 1.68 ± 0.11; the activity coefficient (398.15 K) is 1.72 ± 0.12; the activity coefficient (408.15 K) amounted to 1.77 ± 0.12.

Take `COC(C)=O` [methyl ethanoate] + CCCC[P+](CCCC)(CCCC)CCCC.O=S(=O)([N-]S(=O)(=O)C(F)(F)F)C(F)(F)F: the activity coefficient reads like this: (358.15 K) 0.753 ± 0.05; (368.15 K) 0.785 ± 0.051; (378.15 K) 0.816 ± 0.053; (388.15 K) 0.847 ± 0.054; (398.15 K) 0.878 ± 0.056; (408.15 K) 0.909 ± 0.058.

As to `CC(C)OC(C)C` [diisopropyl ether] + CCCC[P+](CCCC)(CCCC)CCCC.O=S(=O)([N-]S(=O)(=O)C(F)(F)F)C(F)(F)F, the activity coefficient (358.15 K) is 2.88 ± 0.2; the activity coefficient (368.15 K) is 2.94 ± 0.2; the activity coefficient (378.15 K) was 3 ± 0.2; the activity coefficient (388.15 K) stood at 3.05 ± 0.21; the activity coefficient (398.15 K) was found to be 3.11 ± 0.21; the activity coefficient (408.15 K) was 3.17 ± 0.22.

As to `C=Cc1ccccc1` [styrene] + CCCC[P+](CCCC)(CCCC)CCCC.O=S(=O)([N-]S(=O)(=O)C(F)(F)F)C(F)(F)F, the activity coefficient (358.15 K) was determined as 1.01 ± 0.06; the activity coefficient (368.15 K) was 1.05 ± 0.07; the activity coefficient (378.15 K) was 1.1 ± 0.07; the activity coefficient (388.15 K) was 1.14 ± 0.07; the activity coefficient (398.15 K) stood at 1.18 ± 0.08; the activity coefficient (408.15 K) amounted to 1.23 ± 0.08.

On to `C=COC(C)=O` [vinyl acetate] + CCCC[P+](CCCC)(CCCC)CCCC.O=S(=O)([N-]S(=O)(=O)C(F)(F)F)C(F)(F)F, for which the activity coefficient was 0.983 ± 0.062 (358.15 K); 1.01 ± 0.06 (368.15 K); 1.04 ± 0.07 (378.15 K); 1.07 ± 0.07 (388.15 K); 1.1 ± 0.07 (398.15 K); 1.13 ± 0.07 (408.15 K).

As to `COC(C)(C)C` [2-methoxy-2-methylpropane] + CCCC[P+](CCCC)(CCCC)CCCC.O=S(=O)([N-]S(=O)(=O)C(F)(F)F)C(F)(F)F, the activity coefficient is, setting by setting: (358.15 K) 1.66 ± 0.11; (368.15 K) 1.73 ± 0.12; (378.15 K) 1.8 ± 0.12; (388.15 K) 1.87 ± 0.13; (398.15 K) 1.94 ± 0.13; (408.15 K) 2.01 ± 0.14.

In the case of `c1ccsc1` [thiophene] + CCCC[P+](CCCC)(CCCC)CCCC.O=S(=O)([N-]S(=O)(=O)C(F)(F)F)C(F)(F)F, the activity coefficient turned out to be 0.782 ± 0.051 (358.15 K); 0.812 ± 0.053 (368.15 K); 0.842 ± 0.054 (378.15 K); 0.872 ± 0.056 (388.15 K); 0.9 ± 0.057 (398.15 K); 0.929 ± 0.059 (408.15 K).

Consider `CCCCC` [pentane] + CCCC[P+](CCCC)(CCCC)CCCC.O=S(=O)([N-]S(=O)(=O)C(F)(F)F)C(F)(F)F, for which the activity coefficient was found to be 3.61 ± 0.25 (358.15 K); 3.62 ± 0.25 (368.15 K); 3.65 ± 0.25 (378.15 K); 3.66 ± 0.25 (388.15 K); 3.68 ± 0.25 (398.15 K); 3.7 ± 0.25 (408.15 K).

For `C1CCCC1` [cyclopentane] + CCCC[P+](CCCC)(CCCC)CCCC.O=S(=O)([N-]S(=O)(=O)C(F)(F)F)C(F)(F)F, the activity coefficient was determined as 2.33 ± 0.16 (358.15 K); 2.35 ± 0.16 (368.15 K); 2.37 ± 0.16 (378.15 K); 2.38 ± 0.16 (388.15 K); 2.4 ± 0.16 (398.15 K); 2.42 ± 0.16 (408.15 K).

The values are drawn from the NIST ThermoML archive (doi:10.1016/j.fluid.2018.07.028).
